Results on 15 molecules are retold here after patent US8691764B2, “Inhibitors of NF-κB activity” (The Research Foundation for the State University of New York, priority 2007, dated 2014).

Where no end group is shown, it is not given here.

Assay [1] has as its target T1, NF-κB (Homo sapiens, UniProt P19838+Q04206). Briefly: NF-κB activity ELISA (TransBinding NF-κB assay kit), BxPC-3 cells. It counts as cell-based. Also on record: endogenous in cells; host or cells: BxPC-3. The conditions noted are these: for NF-κB activity with peptides of annexin 1: BxPC-3 cells, 30 μM, 3 h. The protocol:
(§1) NF-κB activity was measured in these cells using the TransBinding NF-κB assay kit and following the instructions of the manufacturer (Panomics). Briefly, nuclear extracts obtained as described above, were incubated for 30 min in an ELISA plate coated with NF-κB consensus DNA sequence to which p50 protein can bind. After binding, antibody against p50 was added and incubated for 1 hour, followed by HRP-conjugated antibody for 1 hour. Afterwards, luminol/enhancer solution and stable peroxide solution were added and chemoluminescence was detected using a luminometer (Bio-Rad).

The test system of the next assay is annexin 1. Briefly: Induction of annexin 1 in BxPC-3 cells, Western blot of nuclear and cytoplasmic extracts. Format: cell-based, human. The conditions noted are these: for expression of annexin 1: 5 mM conventional ASA, 100 μM cortisone; for annexin 1 expression with conventional NSAIDs: 6 h, each at 1 mM. The protocol:
The human pancreatic cancer cell line, BxPC-3, or the colon cancer cell line HT-29, both from ATCC (Manassas, Va.) were maintained and grown in RPMI 1640 or McCoy's 5A medium (Cellgro) supplemented with 10% fetal bovine serum (HyClone) and 1% penicillin/streptomycin (Cellgro) in a humidified incubator at 37° C. and 5% CO2.
The cell fractions were obtained as described by Andrews and Faller (N. C. Andrews and D. V. Faller, Nucleic Acids Res. 19:2499 (1991)) with modification. Briefly, the cells were pelleted after treatment and washed three times with PBS. The cell pellets were resuspended in ice cold buffer A (10 mM HEPES, pH 7.9, 10 mM KCl, 1.5 mM MgCI2, 0.5 mM DTT, 0.5 mM PMSF) with protease inhibitor cocktail (Sigma) and incubated on ice for 15 min with occasional mixing by gently tapping the tube. The cell lysates were centrifuged up to 5000 rpm for three times. The supernatants were collected as cytoplasmic extracts. Nuclear pellets were washed with buffer A and resuspended in buffer C (20 mM HEPES, pH 7.9, 450 mM NaCl, 1.5 mM MgCI2, 0.2 mM EDTA, 0.5 mM DTT, 0.5 mM PMSF, 25% Glycerol) with protease inhibitor cocktail (Sigma) and incubated on ice for 30 min with occasional mixing to extract nuclear proteins. Nuclear extracts were cleared by centrifugation (14,800 rpm for 10 min) and the supernatants were collected as nuclear extracts.
For Western blotting, the proteins from both cytoplasmic extracts and nuclear extracts were separated by SDS-polyacrylamide gel electrophoresis and transferred onto PVDF membranes (Millipore). The membranes were blocked in 5% nonfat dry milk-TBS-T (20 mM Tris-HCl, pH 7.5, 500 mM NaCl. 0.3% Tween 20) at room temperature (RT) for an hour and probed with anti-annexin 1, c-IAP-1, c-IAP-2, and TRAF-1 (Santa Cruz Biotechnology, Inc. CA), and anti-Bcl-2 antibodies (Cell Signaling Technology), in 5% nonfat dry milk-TBS-T at 4° C. overnight. The blots were washed three times with TBS-T for 5 min each wash and incubated with horseradish peroxidase-conjugated secondary antibody (Santa Cruz) in 5% nonfat dry milk-TBS-T at RT for an hour. After five washes with TBS-T, the blots were developed with the enhanced chemiluminescence system (ECL™ Western Blotting System, Amersham Biosciences) and exposed to x-ray film according to the manufacturer's instructions. Protein loading was normalized using anti-β-actin antibodies (Santa Cruz Biotechnology, Inc).
Background: In western blotting, separated proteins are transferred to a membrane and probed.

The conditions of assay [2]: cortisol=1; cited from earlier work.
In assay [3] the target is T1, NF-κB. In words: NF-κB activity ELISA, SW480 cells. Format: cell-based. Also on record: endogenous in cells; host or cells: SW480. The protocol:
as §1, with “In the same manner as for NO-ASA, BxPC-3 cells were treated for 6 h with different corticosteroid inflammatory drugs, each at 4 μM, and tested for their ability to induce annexin 1. […] NF-κB activity” for “NF-κB activity”
BxPC-3 or SW480 cells were treated with 30 μM of each of the peptides of annexin 1 for 3 h. NF-κB activity and apoptosis were measured in whole cell lysates using an ELISA assay as described in EXAMPLES 2 and 4. […] These peptides are Ac-Gln-Ala-Trp, as set forth in SEQ ID NO:1, the peptide Ac-Phe-Gln-Ala-Tip, as set forth in SEQ ID NO:2 and the peptide Ac-Phe-Leu-Lys-Gln-Ala-Trp, as set forth in SEQ ID NO:3. Other depicted acetylated peptides are Ac-Phe-Leu-Lys (SEQ ID NO:14), Ac-Lys-Gln-Ala-Trp (SEQ ID NO:15), and Ac-Val-Ser-Glu-Lys-Gln-Ala-Trp (SEQ ID NO:16).

For assay [4], the system named is SW480 human colon cancer cells. Briefly: Apoptosis, Cell Death Detection ELISA, SW480 cells. It counts as cell-based. The protocol: Apoptosis was determined using the Cell Death Detection ELISA^PLUS assay kit according to the manufacturer's protocol (Roche, Indianapolis, Ind.). Briefly, the cells were treated with either NO-ASA or Dex for 3 h. Cells were harvested and washed three times with PBS. The cell pellet was resuspended with lysis buffer and incubated for 30 min at RT. Cell […] at 200×g for 10 min. The ELISA assay was performed using 20 μl cell lysate and 80 μl Immunoreagent (containing 72 μl Incubation Buffer, 4 μl Anti-histone-biotin Solution, and 4 μl Anti-DNA-POD Solution) per micro-plate well. The micro-plate was covered with an adhesive foil and incubated on a shaker under gentle shaking at 200 rpm for 2 h at RT. The solution in each well was removed thoroughly by tapping and the pellets were rinsed three times with 200 μl Incubation Buffer. […] The absorbance was measured at 405 nm using the SpectraMax micro-plate reader (Molecular Devices, Sunnyvale).
BxPC-3 or SW480 cells were treated with 30 μM of each of the peptides of annexin 1 for 3 h. NF-κB activity and apoptosis were measured in whole cell lysates using an ELISA assay as described in EXAMPLES 2 and 4. […]
For orientation: In an ELISA, binding on a coated surface is turned into a signal by an enzyme label.

Another assay deals with SW480 tumor xenografts. In words: SW480 human colon cancer xenograft in nude mice. The conditions noted are these: i.p. 40 μg once daily. It counts as in vivo, BALB/c nude mice. The protocol:
Female 6-week-old BALB/c nude mice were obtained from The Jackson Laboratory (Bar Harbor, Me.). The animals were housed in a climate- and light-controlled room. Food and water were allowed ad libitum. The SW480 human colon cancer cell line was used to establish xenografts in nude mice. 2×10^6 cells in 100 μl of PBS were injected subcutaneously (s.c.) into the upper portion of the left hind limb of the mice, where they grew as solid tumors. The size of the tumor was measured two times per week using a Venier caliper. The tumor volume was determined using the formula V=L×W(L+W/2)×0.56.
On the 7th day after inoculation, when the tumor size reached an average 240 mm^3, 18 mice were treated with QW-3 administered by i.p. injection of at a dose of 40 μg once daily. The control group (n=18) was administered the vehicle alone. The mice were sacrificed on day 12, and tumors were resected and stored in liquid nitrogen and formalin until further analysis.
Immunohistochemistry was performed on paraffin sections of the tumors. All sections were incubated at 95-100° C. in WCAP reagent (Surgipath) for 30 min, washed and then incubated in 10:1 Methanol:H2O2 for 10 min. Sections were then incubated in rabbit polyclonal PCNA (Santa Cruz, Calif.) or antibody detecting NF-κB activation (Chemicon) for 1 h after which immunoreactivity was detected with an Envision assay kit and DAB reagent (DakoCytomation). All sections were counterstained with haematoxylin and mounted. Negative controls included a non-specific antibody.

T1 sequence (Q04206 whole entry): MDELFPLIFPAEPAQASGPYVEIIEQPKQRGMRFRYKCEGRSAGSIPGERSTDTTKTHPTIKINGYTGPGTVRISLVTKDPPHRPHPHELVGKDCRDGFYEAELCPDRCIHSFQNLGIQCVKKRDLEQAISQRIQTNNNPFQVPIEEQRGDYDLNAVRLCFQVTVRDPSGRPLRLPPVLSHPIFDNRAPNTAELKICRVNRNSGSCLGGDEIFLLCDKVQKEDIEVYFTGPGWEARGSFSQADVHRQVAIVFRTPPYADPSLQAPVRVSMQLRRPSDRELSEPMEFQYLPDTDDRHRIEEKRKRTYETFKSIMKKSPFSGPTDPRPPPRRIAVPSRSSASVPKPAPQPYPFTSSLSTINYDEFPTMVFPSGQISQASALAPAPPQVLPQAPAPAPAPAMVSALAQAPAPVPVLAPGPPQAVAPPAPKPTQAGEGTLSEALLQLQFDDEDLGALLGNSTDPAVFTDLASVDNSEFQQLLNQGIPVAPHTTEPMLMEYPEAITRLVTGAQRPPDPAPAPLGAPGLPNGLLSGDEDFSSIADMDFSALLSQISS
T1 sequence (P19838 1-433 limits assumed): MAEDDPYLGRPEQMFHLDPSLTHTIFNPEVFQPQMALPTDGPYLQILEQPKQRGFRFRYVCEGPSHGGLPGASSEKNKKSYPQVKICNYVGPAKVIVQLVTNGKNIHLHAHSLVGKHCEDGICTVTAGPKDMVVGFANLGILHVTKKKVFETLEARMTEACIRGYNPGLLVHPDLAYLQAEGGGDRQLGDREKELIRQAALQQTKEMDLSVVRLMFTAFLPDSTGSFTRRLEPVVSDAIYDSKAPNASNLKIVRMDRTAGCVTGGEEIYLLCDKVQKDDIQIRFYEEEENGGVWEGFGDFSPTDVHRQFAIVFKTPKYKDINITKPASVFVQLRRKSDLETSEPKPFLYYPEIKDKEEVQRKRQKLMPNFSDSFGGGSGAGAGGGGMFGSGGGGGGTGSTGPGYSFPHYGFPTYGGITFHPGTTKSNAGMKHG

Turning to `CC(=O)Oc1ccccc1C(=O)O` [conventional ASA, aspirin], at NF-κB [1] (cells and concentration not given), the “activity of NF-κB with weak anti-inflammatory drugs” value is “do not inhibit”. In addition, in the assay on annexin 1, the “expression of annexin 1” value is recorded as “failed to induce” and the “annexin 1 expression with conventional NSAIDs” value (from here on “annexin 1 expression”) is “no effect”. Turning to `C[C@]12CCC(=O)C=C1CC[C@@H]1[C@@H]2[C@@H](O)C[C@@]2(C)[C@H]1CC[C@]2(O)C(=O)CO` [cortisol], the relative anti-inflammatory potency in assay [2] is 1. `C[C@]12CCC(=O)C=C1CC[C@@H]1[C@@H]2C(=O)C[C@@]2(C)[C@H]1CC[C@]2(O)C(=O)CO` [cortisone]: the “expression of annexin 1” value in the assay on annexin 1 is “failed to induce”. In the case of `CC(C(=O)O)c1ccc(-c2ccccc2)c(F)c1` (stereo not drawn) [flurbiprofen], the “annexin 1 expression” value in the assay with annexin 1 is “no effect”. In the case of `CC(C)Cc1ccc(C(C)C(=O)O)cc1` (stereo not drawn) [ibuprofen], the “annexin 1 expression” value in the assay on annexin 1 is given as “no effect”. As for `COc1ccc2c(c1)c(CC(=O)O)c(C)n2C(=O)c1ccc(Cl)cc1` [indomethacin], the “annexin 1 expression” value in the assay with annexin 1 was “no effect”. In the case of `CN1C(C(=O)Nc2ccccn2)=C(O)c2ccccc2S1(=O)=O` [piroxicam], the “annexin 1 expression” value in the assay on annexin 1 is given as “no effect”. As for `O=C(O)c1ccccc1O` [salicylic acid], the “annexin 1 expression” value in the assay with annexin 1 is reported as “no effect”. With `CC1=C(CC(=O)O)c2cc(F)ccc2/C1=C\c1ccc([S+](C)[O-])cc1` (stereo not drawn) [sulindac], the “annexin 1 expression” value with annexin 1 is “no effect”. Take `C[C@]12C=CC(=O)C=C1CC[C@H]1[C@@H]3C[C@@H](O)[C@](O)(C(=O)CO)[C@@]3(C)C[C@H](O)[C@@]12F` [triamincinolone]: the relative anti-inflammatory potency in assay [2] is 5. Take Ac-AMVSEFKQAWFIENEEQQYVQTVK [Ac2-26]: in the assay with NF-κB [1], the “NF-κB activity with peptides of annexin 1” value (shortened to “NF-κB activity with peptides”) is given as “inhibited NF-κB activity”. “Ac-Ala-Met-Val-Ser-Glu-Phe-Leu-Lys-Gln-Ala-Trp (Ac-AMVSEFLKQAW) [Ac2-12, commercial peptide of annexin 1]”: in the assay with NF-κB [1], the “NF-κB activity with peptides” value was “inhibited NF-κB activity”. For the molecule Ac-Gln-Ala-Trp [QW-3], the “NF-κB activity with peptides” value with NF-κB [1] was “inhibited NF-κB activity”. Also, the NF-κB activity entry with NF-κB [3] was “inhibited NF-κB activity in a concentration-dependent manner”. In assay [4], the apoptosis result is “enhanced SW480 cell apoptosis”. For the same molecule, in the assay on SW480 tumor xenografts, the “blood levels of IL-6” value is given as “decreased levels of IL-6”, the “blood levels of IL-10” value is “increased the blood levels of IL-10” and the tumor growth result is “suppressed tumor growth”. Also, in the assay on SW480 tumor xenografts (tumor sections), the “NF-κB activity in tumors” value is recorded as “inhibited NF-κB activity” and the “cell proliferation by expression of PCNA (immunohistochemistry)” value is given as “inhibited cell proliferation”. “Ac-Phe-Gln-Ala-Trp (Ac-FQAW) [Ac-Phe-Gln-Ala-Tip]”: the “NF-κB activity with peptides” value with NF-κB [1] was “inhibited NF-κB activity”. Take Ac-Phe-Leu-Lys-Gln-Ala-Trp (Ac-FLKQAW): in the assay with NF-κB [1], the “NF-κB activity with peptides” value was “inhibited NF-κB activity”.
